Values of other authors, collected in patent US20220265666A1, “METHODS OF TREATING SUBSTANCE ABUSE DISORDER, DYSPNEA, TINNITUS, AND CHILD AND ADOLESCENT DEPRESSION” (Praxis Precision Medicines, Inc., priority 2019, published 2022).
Where two headings read alike, the source gives them in different places.

Experiments:
craving to cocaine = conditions: clinical studies
symptoms of tinnitus = conditions: clinical studies
[1] = system: patients with well controlled asthma
tinnitus behavior = conditions: non-clinical models of tinnitus
[2] = second day, same patients, previous inhalation with diazepam
[3] = first day of testing, methacholine inhalation 6 mg/mL, no diazepam, 12 patients

CC(=O)[C@H]1CC[C@H]2[C@@H]3CCC4=CC(=O)CC[C@]4(C)[C@H]3CC[C@]12C [Progesterone]
effect on craving to cocaine (craving to cocaine): decrease craving to cocaine

O=C1CN=C(c2ccccc2Cl)c2cc([N+](=O)[O-])ccc2N1 [clonazepam]
effect on symptoms of tinnitus (symptoms of tinnitus): control some symptoms of tinnitus

CN1C(=O)CN=C(c2ccccc2)c2cc(Cl)ccc21 [diazepam]
effect on bronchoconstriction induced by methacholine ([1]; diazepam aerosol, 12 patients with well controlled asthma): reduced the bronchoconstriction induced by methacholine | FEV1 after methacholine inhalation [1, 2]: 2.21 L | FEV1 before methacholine inhalation [1, 2]: 2.48 L

CNC1(c2ccccc2Cl)CCCCC1=O (stereo not drawn) [ketamine]
effect on tinnitus behavior (tinnitus behavior): not those that reduce excitation (i.e., ketamine) reverse the tinnitus behavior

CC(=O)OC(C)C[N+](C)(C)C (stereo not drawn) [methacholine]
FEV1 after methacholine inhalation [1, 3]: 1.69 L | FEV1 before methacholine inhalation [1, 3]: 2.98 L

C=CC(N)CCC(=O)O (stereo not drawn) [vigabatrin]
effect on tinnitus behavior (tinnitus behavior): reverse the tinnitus behavior
